Consider 20 compounds from patent publication US9637473B2, “Acrylamide derivatives as antimalarial agents” (priority 2013, dated 2017).

pIC50: −log10 of the molar value. Structures can show the parent of a compound that is named as a salt.

This assay has as its system P. Falciparum NF54. Description: Plasmodium falciparum in vitro assay ([3H]-hypoxanthine incorporation). The assay is classed as cell-based. As to conditions: Plasmodium falciparum, Erythrocyte, P. Falciparum NF54, erythrocytic stages in human red blood cells, 50% human serum. In outline:
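This in vitro antimalarial assay used P. falciparum erythrocytic stages cultured in human erythrocytes and measured [3H]-hypoxanthine incorporation. Radioactivity on the dried filters, placed in plastic foil with 10 mL scintillation fluid, was counted in a Betaplate liquid scintillation counter. Sigmoidal inhibition curves built in Microsoft Excel gave the IC50.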
Broadly, the pIC50 is the IC50 on a negative log10 scale, so that one unit is a factor of ten. In turn, `Cc1cc(N(C)c2cccc(CN(C(=O)/C=C/c3ccc(C(F)(F)F)cc3)C3CCN(C(C)C)CC3)c2)ccn1` [Example 121, (E)-N-(1-Isopropyl-piperidin-4-yl)-N-{3-[methyl-(2-methyl-pyridin-4-yl)-amino]-benzyl}-3-(4-trifluoromethyl-phenyl)-acrylamide formate] showed a negative logarithm of the IC50 (pIC50) of 7.12.
`CN(c1ccncc1)c1ccc(CN(C(=O)/C=C/c2ccc(C(F)(F)F)cc2)C2CCN(Cc3ccn4ccnc4c3)CC2)cc1` [Example 25, (E)-N-(1-Imidazo[1,2-a]pyridin-7-ylmethyl-piperidin-4-yl)-N-[4-(methyl-pyridin-4-yl-amino)-benzyl]-3-(4-trifluoromethyl-phenyl)-acrylamide]: the pIC50 was 7.39.
For `CN1CCC(N2CCC(N(Cc3ccc(Nc4ccncc4)cc3)C(=O)/C=C/c3ccc(OC(F)(F)F)cc3)CC2)CC1` [Example 118, (E)-N-(1′-Methyl-[1,4′]bipiperidinyl-4-yl)-N-[4-(pyridin-4-ylamino)-benzyl]-3-(4-trifluoromethoxy-phenyl)-acrylamide], the pIC50 was 7.08.
With `COc1cc(Nc2ccc(CN(C(=O)/C=C/c3ccc(C(F)(F)F)cc3)C3CCN(C4CCCC4)CC3)cc2)ccn1` [Example 94, (E)-N-(1-Cyclopentyl-piperidin-4-yl)-N-[4-(2-methoxy-pyridin-4-ylamino)-benzyl]-3-(4-trifluoromethyl-phenyl)-acrylamide] the figure was 6.54; with `Cc1cc(Nc2ccc(CN(C(=O)/C=C/c3ccc(C(F)(F)F)cc3)C3CCN(Cc4cc(C)nn4C)CC3)cc2)ccn1` [Example 43, (E)-N-[1-(2,5-Dimethyl-2H-pyrazol-3-ylmethyl)-piperidin-4-yl]-N-[4-(2-methyl-pyridin-4-ylamino)-benzyl]-3-(4-trifluoromethyl-phenyl)-acrylamide], 7.08.
Compound `CC(C)N1CCC(N(Cc2cncc(Nc3ccncn3)c2)C(=O)/C=C/c2ccc(C(F)(F)F)cc2)CC1` [Example 139, (E)-N-(1-Isopropyl-piperidin-4-yl)-N-[5-(pyrimidin-4-ylamino)-pyridin-3-ylmethyl]-3-(4-trifluoromethyl-phenyl)-acrylamide formate] had a negative-log IC50 (pIC50) of 6.45.
For the compound `O=C(/C=C/c1ccc(C(F)(F)F)cc1)N(Cc1ccc(Nc2cc(C(F)(F)F)nc3c(C(F)(F)F)cccc23)cc1)C1CCN(C2CCCC2)CC1` [Example 89, (E)-N-[4-(2,8-Bis-trifluoromethyl-quinolin-4-ylamino)-benzyl]-N-(1-cyclopentyl-piperidin-4-yl)-3-(4-trifluoromethyl-phenyl)-acrylamide], the pIC50 was 6.47.
For `Cc1cc(Nc2ccc(CN(C(=O)/C=C/c3ccc(C(F)(F)F)cc3)C3CCN(Cc4cc(C)on4)CC3)cc2)ccn1` [Example 34, (E)-N-[1-(5-Methyl-isoxazol-3-ylmethyl)-piperidin-4-yl]-N-[4-(2-methyl-pyridin-4-ylamino)-benzyl]-3-(4-trifluoromethyl-phenyl)-acrylamide], the negative-log IC50 (pIC50) was 6.62.
Compound `CN(c1ccncc1)c1ccc(CN(C(=O)/C=C/c2ccc(C(F)(F)F)cc2)C2CCN(Cc3nc4ccccc4n3C)CC2)cc1` [Example 21, (E)-N-[1-(1-Methyl-1H-benzoimidazol-2-ylmethyl)-piperidin-4-yl]-N-[4-(methyl-pyridin-4-yl-amino)-benzyl]-3-(4-trifluoromethyl-phenyl)-acrylamide] had a pIC50 of 6.45.
The compound `Cc1cc(-c2ccc(CN(C(=O)/C=C/c3ccc(C(F)(F)F)cc3)C3CCN(C4CCCC4)CC3)cc2)ccn1` [Example 196, (E)-N-(1-Cyclopentyl-piperidin-4-yl)-N-[4-(2-methyl-pyridin-4-yl)-benzyl]-3-(4-trifluoromethyl-phenyl)-acrylamide] had a pIC50 of 6.61.
`Cc1cc(Nc2ccc(CN(CCCN(C)C)C(=O)/C=C/c3ccc(Cl)cc3)cc2)ccn1` [Example 167, (E)-3-(4-Chloro-phenyl)-N-(3-dimethylamino-propyl)-N-[4-(2-methyl-pyridin-4-ylamino)-benzyl]-acrylamide] had a pIC50 of 6.96.
`O=C(/C=C/c1ccc(C(F)(F)F)cc1)N(Cc1ccc(Nc2ccnc3cc(C(F)(F)F)ccc23)cc1)C1CCN(C2CCCC2)CC1` [Example 90, (E)-N-(1-Cyclopentyl-piperidin-4-yl)-3-(4-trifluoromethyl-phenyl)-N-[4-(7-trifluoromethyl-quinolin-4-ylamino)-benzyl]-acrylamide] had a negative logarithm of the IC50 (pIC50) of 6.86.
`CN1CCC(N2CCC(N(Cc3ccc(Nc4ccncc4)nc3)C(=O)/C=C/c3ccc(C(F)(F)F)cc3)CC2)CC1` [Example 110, (E)-N-(1′-Methyl-[1,4′]bipiperidinyl-4-yl)-N-[6-(pyridin-4-ylamino)-pyridin-3-ylmethyl]-3-(4-trifluoromethyl-phenyl)-acrylamide] had a negative-log IC50 (pIC50) of 6.77.
In turn, `CN(c1ccncc1)c1ccc(CN(C(=O)/C=C/c2ccc(C(F)(F)F)cc2)C2CCN(Cc3ncccn3)CC2)cc1` [Example 29, (E)-N-[4-(Methyl-pyridin-4-yl-amino)-benzyl]-N-(1-pyrimidin-2-ylmethyl-piperidin-4-yl)-3-(4-trifluoromethyl-phenyl)-acrylamide] had a pIC50 of 6.53.
In the case of `CC(C)N1CCC(N(Cc2cccc(N(C)c3ccncc3)n2)C(=O)/C=C/c2ccc(C(F)(F)F)cc2)CC1` [Example 127, (E)-N-(1-Isopropyl-piperidin-4-yl)-N-[6-(methyl-pyridin-4-yl-amino)-pyridin-2-ylmethyl]-3-(4-trifluoromethyl-phenyl)-acrylamide formate] it was 6.74; in that of `Cc1cc(Nc2ccc(CN(C(=O)/C=C/c3ccc(C(F)(F)F)cc3)C3CCN(C4CCCC4)C3)cc2)ccn1` (racemic) [Example 101, (±)-(E)-N-(1-Cyclopentyl-pyrrolidin-3-yl)-N-[4-(2-methyl-pyridin-4-ylamino)-benzyl]-3-(4-trifluoromethyl-phenyl)-acrylamide], 7.37.
With `CC(C)CCN1CCC(CN(Cc2ccc(N(C)c3ccncc3)cc2)C(=O)/C=C/c2ccc(C(F)(F)F)cc2)CC1` [Example 189, (E)-N-[1-(3-Methyl-butyl)-piperidin-4-ylmethyl]-N-[4-(methyl-pyridin-4-yl-amino)-benzyl]-3-(4-trifluoromethyl-phenyl)-acrylamide] the figure was 7.47; with `Cc1cc(Nc2ccc(CN(C(=O)/C=C/c3ccc(C(F)(F)F)cc3)C3CCN(C4CCCC4)CC3)cc2)ccn1` [Example 95, (E)-N-(1-Cyclopentyl-piperidin-4-yl)-N-[4-(2-methyl-pyridin-4-ylamino)-benzyl]-3-(4-trifluoromethyl-phenyl)-acrylamide], 7.89.
Take `O=C(/C=C/c1ccc(C(F)(F)F)cc1)N(Cc1ccc(Nc2ccncc2)cc1)C1CCN(C2CCCC2)CC1` [Example 86, (E)-N-(1-Cyclopentyl-piperidin-4-yl)-N-[4-(pyridin-4-ylamino)-benzyl]-3-(4-trifluoromethyl-phenyl)-acrylamide]: the pIC50 is 7.37.
For `CN(c1ccncc1)c1ccc(CN(C(=O)/C=C/c2ccc(C(F)(F)F)cc2)[C@H]2CC[C@H](N(C)C)CC2)cc1` [Example 190, (±)-trans-(E)-N-(4-Dimethylamino-cyclohexyl)-N-[4-(methyl-pyridin-4-yl-amino)-benzyl]-3-(4-trifluoromethyl-phenyl)-acrylamide], the negative-log IC50 (pIC50) is 7.20.
